The test addresses USP7 (Homo sapiens (Human), UniProt Q93009). Description: USP7 Assay B (Ubitquin-Rhodamine110 Assay). To be noted: Ub-Rh110 substrate 25 nM. The class given is biochemical. The method, then: Stock compound solutions were stored at −20° C. as 10 mM in DMSO. […] Prestamped assay plates were allowed to come to room temperature on the day of the assay. For the screen, 100 nL of 2 mM was pre-dispensed for a final screening concentration of 10 μM (DMSO(fc)=0.5%). […] Unless otherwise indicated, all follow-up assays were run on triplecate plates. […] Pre-stamped with compounds were either not preincubated or preincubated with USP7 between 30 to 120 minutes prior to the addition of 10 μL of 2×Ub-Rh110 to compound plates. Plates were incubated stacked for either 23 or 45 minutes at room temperature before fluorescence was read on the Envision (Excitation at 485 nm and Emission at 535 nm; Perkin Elmer) or on the PheraSTAR (Excitation at 485 nm and Emission at 535 nm; BMG Labtech).
Data from USP7 Assays A and B were reported as percent inhibition (inh) compared with control wells based on the following equation: % inh=1−((FLU−AveLow)/(AveHigh−AveLow)) where FLU=measured Fluorescence (See Tables 2 and 3). AveLow=average Fluorescence of no enzyme control (n=16). AveHigh=average Fluorescence of DMSO control (n=16). IC50 values were determined by curve fitting of the standard 4 parameter logistic fitting algorithm included in the Activity Base software package: IDBS XE Designer Model205. Data is fitted using the Levenburg Marquardt algorithm.

The results in this text go back to patent US11795171B2, “Pyrrolotriazinones and imidazotriazinones as ubiquitin-specific protease 7 inhibitors” (Valo Health, Inc., priority 2014, dated 2023).

Broadly, the IC50 is the point on the concentration scale where inhibition reaches its midpoint. The low end stands for higher potency, the high end for lower potency.

Chain of USP7 (Q93009 208-1102): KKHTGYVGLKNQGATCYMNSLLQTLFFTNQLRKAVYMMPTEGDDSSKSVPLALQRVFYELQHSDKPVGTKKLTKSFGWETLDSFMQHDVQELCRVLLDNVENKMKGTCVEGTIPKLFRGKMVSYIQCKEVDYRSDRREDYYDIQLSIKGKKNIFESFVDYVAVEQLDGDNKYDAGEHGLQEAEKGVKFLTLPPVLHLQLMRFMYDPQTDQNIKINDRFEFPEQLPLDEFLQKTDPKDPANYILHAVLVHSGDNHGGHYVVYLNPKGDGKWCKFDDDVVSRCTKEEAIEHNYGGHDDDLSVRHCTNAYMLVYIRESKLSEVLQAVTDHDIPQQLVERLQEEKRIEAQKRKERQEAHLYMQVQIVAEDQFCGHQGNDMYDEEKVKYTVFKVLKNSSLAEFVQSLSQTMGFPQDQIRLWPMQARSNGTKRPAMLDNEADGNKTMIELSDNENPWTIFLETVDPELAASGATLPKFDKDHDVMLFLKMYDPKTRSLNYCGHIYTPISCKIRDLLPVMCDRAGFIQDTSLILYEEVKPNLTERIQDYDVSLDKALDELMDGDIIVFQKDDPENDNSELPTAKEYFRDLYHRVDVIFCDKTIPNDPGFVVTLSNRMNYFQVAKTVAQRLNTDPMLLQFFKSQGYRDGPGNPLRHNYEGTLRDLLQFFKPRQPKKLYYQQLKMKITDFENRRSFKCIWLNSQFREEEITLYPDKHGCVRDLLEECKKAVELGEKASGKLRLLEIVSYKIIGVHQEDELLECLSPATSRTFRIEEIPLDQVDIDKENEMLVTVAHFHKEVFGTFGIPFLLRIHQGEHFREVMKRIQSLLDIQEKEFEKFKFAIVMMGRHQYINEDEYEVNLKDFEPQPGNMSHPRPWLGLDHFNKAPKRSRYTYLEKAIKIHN

For the compound “3-((1-(3-(1H-pyrazol-1-yl)butanoyl)-4-hydroxypiperidin-4-yl)methyl)pyrrolo[2,1-f][1,2,4]triazin-4(3H)-one [Compound I-34]”, the IC50 is over 10 µM.

Compound “3-((4-hydroxy-1-(3-phenylbutanoyl)piperidin-4-yl)methyl)-6-methylpyrrolo[2,1-f][1,2,4]triazin-4(3H)-one [Compound I-83]” yielded an IC50 of 1 to 10 µM.

The compound `CC(CC(=O)N1CCC(O)(Cn2cnn3cccc3c2=O)CC1)c1ccccc1` (centres unmarked) [Compound I-1, 3-((4-hydroxy-1-(3-phenylbutanoyl)piperidin-4-yl)methyl)pyrrolo[2,1-f][1,2,4]triazin-4(3H)-one] gave a 50% inhibitory concentration (IC50) of 0.2 to 1 µM.

`O=C(c1ccccc1-c1ccccc1)N1CCC(O)(Cn2cnn3cccc3c2=O)CC1` [Compound I-2, 3-((1-([1,1′-biphenyl]-2-carbonyl)-4-hydroxypiperidin-4-yl)methyl)pyrrolo[2,1-f][1,2,4]triazin-4(3H)-one] showed an IC50 of over 10 µM.

`O=C(c1ccccc1-c1ccsc1)N1CCC(O)(Cn2cnn3cccc3c2=O)CC1` [Compound I-3, 3-((4-hydroxy-1-(2-(thiophen-3-yl)benzoyl)piperidin-4-yl)methyl)pyrrolo[2,1-f][1,2,4]triazin-4(3H)-one] registered an IC50 of over 10 µM.

Compound `O=C(c1ccccc1-c1cccc(F)c1)N1CCC(O)(Cn2cnn3cccc3c2=O)CC1` [Compound I-4, 3-((1-(3′-fluoro-[1,1′-biphenyl]-2-carbonyl)-4-hydroxypiperidin-4-yl)methyl)pyrrolo[2,1-f][1,2,4]triazin-4(3H)-one] displayed an IC50 of over 10 µM.

`O=C(c1cccc(-c2ccc3c(c2)OCO3)c1)N1CCC(O)(Cn2cnn3cccc3c2=O)CC1` [Compound I-5, 3-((1-(3-(benzo[d][1,3]dioxol-5-yl)benzoyl)-4-hydroxypiperidin-4-yl)methyl)pyrrolo[2,1-f][1,2,4]triazin-4(3H)-one] returned a half-inhibitory concentration (IC50) of 1 to 10 µM.

Regarding `Cc1ccccc1-c1cccc(C(=O)N2CCC(O)(Cn3cnn4cccc4c3=O)CC2)c1` [Compound I-6, 3-((4-hydroxy-1-(2′-methyl-[1,1′-biphenyl]-3-carbonyl)piperidin-4-yl)methyl)pyrrolo[2,1-f][1,2,4]triazin-4(3H)-one], the IC50 fell in the range of 1 to 10 µM.

In turn, `Cc1ccc(-c2cccc(C(=O)N3CCC(O)(Cn4cnn5cccc5c4=O)CC3)c2)cc1` [Compound I-7, 3-((4-hydroxy-1-(4′-methyl-[1,1′-biphenyl]-3-carbonyl)piperidin-4-yl)methyl)pyrrolo[2,1-f][1,2,4]triazin-4(3H)-one] had an IC50 of 1 to 10 µM.

Regarding `COc1ccc(-c2cccc(C(=O)N3CCC(O)(Cn4cnn5cccc5c4=O)CC3)c2)cc1` [Compound I-8, 3-((4-hydroxy-1-(4′-methoxy-[1,1′-biphenyl]-3-carbonyl)piperidin-4-yl)methyl)pyrrolo[2,1-f][1,2,4]triazin-4(3H)-one], the IC50 lay within 1 to 10 µM.

As for `Cc1cc(-c2cccc(C(=O)N3CCC(O)(Cn4cnn5cccc5c4=O)CC3)c2)ccc1F` [Compound I-9, 3-((1-(4′-fluoro-3′-methyl-[1,1′-biphenyl]-3-carbonyl)-4-hydroxypiperidin-4-yl)methyl)pyrrolo[2,1-f][1,2,4]triazin-4(3H)-one], the IC50 was over 10 µM.

The compound `COc1cccc(-c2cccc(C(=O)N3CCC(O)(Cn4cnn5cccc5c4=O)CC3)c2)c1` [Compound I-10, 3-((4-hydroxy-1-(3′-methoxy-[1,1′-biphenyl]-3-carbonyl)piperidin-4-yl)methyl)pyrrolo[2,1-f][1,2,4]triazin-4(3H)-one] displayed an IC50 of over 10 µM.

As to `O=C(c1cccc(-c2ccccc2)c1)N1CCC(O)(Cn2cnn3cccc3c2=O)CC1` [Compound I-11, 3-((1-([1,1′-biphenyl]-3-carbonyl)-4-hydroxypiperidin-4-yl)methyl)pyrrolo[2,1-f][1,2,4]triazin-4(3H)-one], the IC50 was in the range of 1 to 10 µM.

Turning to `O=C(c1cccc(-c2ccc(Cl)cc2)c1)N1CCC(O)(Cn2cnn3cccc3c2=O)CC1` [Compound I-12, 3-((1-(4′-chloro-[1,1′-biphenyl]-3-carbonyl)-4-hydroxypiperidin-4-yl)methyl)pyrrolo[2,1-f][1,2,4]triazin-4(3H)-one], the IC50 lay within 1 to 10 µM.

Compound `O=C(c1cccc(-c2cccc(Cl)c2)c1)N1CCC(O)(Cn2cnn3cccc3c2=O)CC1` [Compound I-13, 3-((1-(3′-chloro-[1,1′-biphenyl]-3-carbonyl)-4-hydroxypiperidin-4-yl)methyl)pyrrolo[2,1-f][1,2,4]triazin-4(3H)-one] displayed a 50% inhibitory concentration (IC50) of 1 to 10 µM.

Take `CC(C)c1ccc(-c2cccc(C(=O)N3CCC(O)(Cn4cnn5cccc5c4=O)CC3)c2)cc1` [Compound I-14, 3-((4-hydroxy-1-(4′-isopropyl-[1,1′-biphenyl]-3-carbonyl)piperidin-4-yl)methyl)pyrrolo[2,1-f][1,2,4]triazin-4(3H)-one]: the half-inhibitory concentration (IC50) is over 10 µM.

Take `O=C(c1cccc(-c2ccc(C(F)(F)F)cc2)c1)N1CCC(O)(Cn2cnn3cccc3c2=O)CC1` [Compound I-15, 3-((4-hydroxy-1-(4′-(trifluoromethyl)-[1,1′-biphenyl]-3-carbonyl)piperidin-4-yl)methyl)pyrrolo[2,1-f][1,2,4]triazin-4(3H)-one]: the IC50 was over 10 µM.

The compound `NC(=O)c1ccc(-c2cccc(C(=O)N3CCC(O)(Cn4cnn5cccc5c4=O)CC3)c2)cc1` [Compound I-16, 3′-(4-hydroxy-4-((4-oxopyrrolo[2,1-f][1,2,4]triazin-3(4H)-yl)methyl)piperidine-1-carbonyl)-[1,1′-biphenyl]-4-carboxamide] returned an IC50 of 1 to 10 µM.

The compound `Cc1ccc(-c2cccc(C(=O)N3CCC(O)(Cn4cnn5cccc5c4=O)CC3)c2)cc1C` [Compound I-17, 3-((1-(3′,4′-dimethyl-[1,1′-biphenyl]-3-carbonyl)-4-hydroxypiperidin-4-yl)methyl)pyrrolo[2,1-f][1,2,4]triazin-4(3H)-one] showed an IC50 of over 10 µM.

Regarding `N#Cc1ccccc1-c1cccc(C(=O)N2CCC(O)(Cn3cnn4cccc4c3=O)CC2)c1` [Compound I-18, 3′-(4-hydroxy-4-((4-oxopyrrolo[2,1-f][1,2,4]triazin-3(4H)-yl)methyl)piperidine-1-carbonyl)-[1,1′-biphenyl]-2-carbonitrile], the IC50 was over 10 µM.

For the compound `N#Cc1ccc(-c2cccc(C(=O)N3CCC(O)(Cn4cnn5cccc5c4=O)CC3)c2)cc1` [Compound I-19, 3′-(4-hydroxy-4-((4-oxopyrrolo[2,1-f][1,2,4]triazin-3(4H)-yl)methyl)piperidine-1-carbonyl)-[1,1′-biphenyl]-4-carbonitrile], the IC50 was over 10 µM.

The compound `Cc1ccc(-c2cccc(C(=O)N3CCC(O)(Cn4cnn5cccc5c4=O)CC3)c2)s1` [Compound I-20, 3-((4-hydroxy-1-(3-(5-methylthiophen-2-yl)benzoyl)piperidin-4-yl)methyl)pyrrolo[2,1-f][1,2,4]triazin-4(3H)-one] displayed an IC50 of over 10 µM.

In turn, `O=C(c1cccc(-c2ccc3ncccc3c2)c1)N1CCC(O)(Cn2cnn3cccc3c2=O)CC1` [Compound I-21, 3-((4-hydroxy-1-(3-(quinolin-6-yl)benzoyl)piperidin-4-yl)methyl)pyrrolo[2,1-f][1,2,4]triazin-4(3H)-one] registered an IC50 of 1 to 10 µM.
